Experimental data published in patent US6127349A, “Phospholipid drug derivatives” (Amur Research Corporation, priority 1998, dated 2000).

What was measured:
[1] = tested on: cutaneous hypersensitivity immune response; assay: DNCB-induced cutaneous contact hypersensitivity (ear swelling); assay type: in vivo, mice (Balb/c); settings: for cutaneous hypersensitivity immune response: 100 μg/day/mouse s.c., twelve days, ears rechallenged with 1% DNCB; for cutaneous hypersensitivity immune response / suppression of the response by dexamethasone: days 7-12; for suppression of the response by dexamethasone: steroid together with dexamethasone
Procedure: The effects of DHEA-PC on cutaneous contact hypersensitivity was studied. In this study, mice (Balb/c) were immunologically challenged with DNCB (2 % in ethanol) applied to a 2 cm area on the back. The steroid was injected subcutaneously (100 μg/day/mouse) throughout the twelve-day study period. Ears were rechallenged with DNCB (1% in ethanol) on days 7-12 and swelling was measured daily in order to evaluate the effect on the immune system.

[2] = oral; cited from earlier work
[3] = tested on: enzyme on lymphocyte cell membrane that cleaves phosphocholine from other compounds; assay: Stimulation of lymphocyte membrane enzyme that cleaves phosphocholine; assay type: biochemical; settings: data not shown
[4] = Partition of tritiated DHEA-phosphocholine reaction product between aqueous phase and benzene (scintillation counting); assay type: physicochemical
Procedure: A dehydroepiandrosterone(DHEA)-phosphocholine derivative was synthesized as follows: 1 mg of phosphocholine (calcium salt; Sigma Chemical, St. Louis, Mo.) was dissolved in 0.5 ml of formamide (Cat # S-7503; Lot # 55HO257; Sigma Chemical) and 0.5 ml of pyridine (Cat # P-4036; Lot # 55H1489; Sigma Chemical). 0.025 mCi of (1,2,6,7 ^3 H(n)-Dehydroepiandrosterone (Cat # NET814; Lot # 3146097; 89.2 Ci/mmol; Dupont, NEN Products, Boston, Mass.) in 0.025 ml of ethanol was added. The reaction was catalyzed by the addition (as the dry solid) of 5 mg of dicyclohexylcarbodiimide (Cat # D-3129; Lot # 34hO647; Sigma Chemical). The reaction mixture was incubated overnight at room temperature. In the morning, 9 ml of water was added and the mixture extracted 3 times with 10 ml portions of benzene. The benzene extracts were combined and aliquots of both phases were counted in a scintillation counter. The results are set forth below:
The aqueous layer was re-extracted with benzene. The second benzene extraction yielded 272 cpm (0.01 M1) as a confirmation.

[5] = oral administration, cited from earlier work
[6] = literature; cited from earlier work
[7] = cited from earlier work
[8] = tested on: neutral sphingomylenase; assay: Hydrolysis of DHEA-PC by neutral sphingomyelinase; assay type: biochemical
Procedure: (§1) DHEA-phosphocholine (DHEA-PC) was synthesized by sequential reaction of DHEA, choline, and water with phosphorous oxychloride. The synthetic product had the same HPLC retention time and the same mass-spectrum as did the endogenous, actual compound. […] When human serum extracts were analyzed, mass fragments were detected at the same retention time as synthetic material.

[9] = tested on: acidic sphingomylenase; assay: Hydrolysis of DHEA-PC by acidic sphingomyelinase; assay type: biochemical
Procedure: as §1

For `C[C@]12CC[C@H](OS(=O)(=O)O)CC1=CC[C@@H]1[C@@H]2CC[C@]2(C)C(=O)CC[C@@H]12` [DHEA-sulfate], the “cutaneous hypersensitivity immune response” value [1] was “similar, high level response” and the “suppression of the response by dexamethasone” value (“suppression of the response” below) [1] was “not suppressed by dexamethasone”.
For `C[C@]12CC[C@H]3[C@@H](CCC4=CC(=O)CC[C@@]43C)[C@@H]1CC[C@@H]2O` [testosterone], the “activity when administered orally” value [2] is listed as “only limited activity”.
For “TGF-α: stimulates lymphocyte membrane enzyme that cleaves phosphocholine”, the “stimulation of enzyme activity” value [3] was “ten-fold”.
In the case of `C[C@]12CC[C@H](O)CC1=CC[C@@H]1[C@@H]2CC[C@]2(C)C(=O)CC[C@@H]12` [DHEA, dehydroepiandrosterone], the “extraction of free starting material into benzene” value ([4]; water/benzene, expected with this protocol) was “extracted quantitatively into benzene”, the “cutaneous hypersensitivity immune response” value [1] was “similar, high level response” and the “suppression of the response” value [1] was “not suppressed by dexamethasone”. The “activity when administered orally” value [2] was “only limited activity”.
In the case of `C[C@]12CC[C@@H](O)C[C@H]1CC[C@@H]1[C@@H]2CC[C@]2(C)C(=O)CC[C@@H]12` [etiocholanolone], the “activity when administered orally” value [2] is listed as “only limited activity”, the “inactivated on each pass through the liver” value ([5]; free compound) is listed as “about 99%” and the “biologically available fraction of the administered drug” value [5] is listed as “only a fraction of a percent”.
For `O=C1N(Cc2ccc(CO)cc2)[C@H](Cc2ccccc2)[C@H](O)[C@@H](O)[C@@H](Cc2ccccc2)N1Cc1ccc(CO)cc1` [DMP-323], the aqueous solubility [6] is given as “low aqueous solubility”, the “bioavailability upon administration to patients” value [7] is given as “variability in the compounds bioavailability” and the efficacy ([7]; patients) is given as “inconsistent efficacy”.
With `C[C@@H]1C[C@H]2[C@@H]3CCC4=CC(=O)C=C[C@]4(C)[C@@]3(F)[C@@H](O)C[C@]2(C)[C@@]1(O)C(=O)CO` [dexamethasone] the “immune response with dexamethasone administered by itself” value ([1]; versus control) was “suppressed the immune response below the control”.
For `C[C@]12CC[C@H](OP(=O)([O-])OCC[N+](C)(C)C)CC1=CC[C@@H]1[C@@H]2CC[C@]2(C)C(=O)CC[C@@H]12` [DHEA-PC, DHEA-3-PHOSPHOCHOLINE], the “second benzene extraction radioactivity” value ([4]; 0.01 M1 aliquot, re-extraction of the aqueous layer with benzene) was 272 cpm, the “Aqueous Phase radioactivity” value ([4]; 0.01 ml aliquot, after 3 benzene extractions) was 10,729 cpm and the “Benzene Phase radioactivity” value ([4]; 0.01 ml aliquot, combined benzene extracts) was 1,121 cpm. For the same compound, the “phase in which the reaction product is found” value ([4]; water/benzene) was “remains in the aqueous phase”, the “hydrolysis by neutral sphingomylenase” value [8] was “hydrolyzed by neutral sphingomylenase” and the “hydrolysis by acidic sphingomylenase” value [9] was “not by acidic sphingomylenase”. The “cutaneous hypersensitivity immune response” value [1] was “enhanced the cutaneous hypersensitivity immune response similar to native steroids”, the dinitrochlorobenzene-induced sensitization ([1]; administered to mice) was “potentiated dinitrochlorobenzene-induced sensitization” and the “suppression of the response” value [1] was “not suppressed by dexamethasone”.
For `C[C@]12CC[C@@H]3c4ccc(O)cc4CC[C@H]3[C@@H]1CC[C@@H]2O` [estradiol], the “activity when administered orally” value [2] is given as “only limited activity”.
